Test results taken from ChEMBL document CHEMBL5223119, “Discovery of pyrrolo[2,3-d]pyrimidine-based molecules as a Wee1 inhibitor template” (Bioorg Med Chem Lett, 2022).

Legend:
[1] = Cmax in rat at 5 mg/kg,IG measured upto 24 hrs by LC-MS/MS analysis; assay type: ADME, organism-based; design: dose 5 mg/kg, time < 24 hrs, route ig; conditions: in vivo, po
[2] = Tmax in rat at 5 mg/kg,IG measured upto 24 hrs by LC-MS/MS analysis; assay type: ADME, organism-based; conditions: in vivo, po
[3] = AUC (0-infinity) in rat at 5 mg/kg,IG measured upto 24 hrs by LC-MS/MS analysis; assay type: ADME, organism-based; design: dose 5 mg/kg, time < 24 hrs, route ig; conditions: in vivo, po
Wee1-like protein kinase = Wee1-like protein kinase (Homo sapiens, UniProt P30291); test: Inhibition of Wee1 (unknown origin) incubated for 60 mins by LanthaScreen Eu-Kinase binding assay
NCI-H1299 = test: Antiproliferative activity against human NCI-H1299 cells assessed as cell growth inhibition incubated for 3 days by CellTiter-Glo Luminescent assay; assay type: functional, cell-based; conditions: NCI-H1299, 72 h
[4] = Half life in rat at 5 mg/kg,IG measured upto 24 hrs by LC-MS/MS analysis; assay type: ADME, organism-based; conditions: in vivo, po

Wee1-like protein kinase, sequence (P30291 whole entry): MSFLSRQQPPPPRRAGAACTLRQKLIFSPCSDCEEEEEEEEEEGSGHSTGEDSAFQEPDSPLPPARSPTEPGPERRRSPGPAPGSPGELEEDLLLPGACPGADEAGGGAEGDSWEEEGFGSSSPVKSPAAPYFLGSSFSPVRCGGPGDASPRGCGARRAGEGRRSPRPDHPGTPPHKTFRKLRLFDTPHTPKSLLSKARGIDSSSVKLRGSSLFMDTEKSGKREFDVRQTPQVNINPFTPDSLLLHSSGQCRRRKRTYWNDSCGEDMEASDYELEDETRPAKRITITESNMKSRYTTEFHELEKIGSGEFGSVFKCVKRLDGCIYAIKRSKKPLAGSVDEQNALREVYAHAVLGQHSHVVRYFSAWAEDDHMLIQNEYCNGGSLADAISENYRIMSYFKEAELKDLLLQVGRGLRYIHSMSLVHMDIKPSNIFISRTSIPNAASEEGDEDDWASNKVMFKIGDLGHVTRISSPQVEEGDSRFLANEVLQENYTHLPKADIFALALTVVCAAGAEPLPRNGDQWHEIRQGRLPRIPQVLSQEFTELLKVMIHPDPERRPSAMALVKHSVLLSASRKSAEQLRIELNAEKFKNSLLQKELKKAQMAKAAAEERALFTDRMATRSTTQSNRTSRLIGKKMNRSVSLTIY

Structure (SMILES)	Cmax [1] [ng/mL]	Tmax [2] [h]	AUC(0-inf) [3] [ng·h/mL]	IC50 (Wee1-like protein kinase) [nM]	IC50 (NCI-H1299) [nM]	half-life [4] [h]
CN1CCN(C2CCN(c3ccc(Nc4ncc5c(F)c(C6CC6)n(-c6cccc(C(C)(C)O)n6)c5n4)cc3F)CC2)CC1	117	6.7	4580	10.6	623	33.4
CN1CCC2(CC1)CCN(c1ccc(Nc3ncc4cc(C5CC5)n(-c5cccc(C(C)(C)O)n5)c4n3)cc1)CC2	163	4.8	4070	–	199	19.2
CN1CCN(c2ccc(Nc3ncc4c(F)c(C5CC5)n(-c5cccc(C(C)(C)O)n5)c4n3)cc2)CC1	–	–	–	38.2	288	–
CN1CCN(C2CCN(c3ccc(Nc4ncc5c(F)c(C6CC6)n(-c6cccc(C(C)(C)O)n6)c5n4)cc3)CC2)CC1	83	6	1750	0.86	211	10.9
CCCc1cc2cnc(Nc3ccc(N4CCN(C)CC4)cc3)nc2n1-c1cccc(C(C)(C)O)n1	–	–	–	–	126	–
CCc1cc2cnc(Nc3ccc(N4CCN(C)CC4)cc3)nc2n1-c1cccc(C(C)(C)O)n1	–	–	–	0.1	–	–
CC(C)c1cc2cnc(Nc3ccc(N4CCN(C)CC4)cc3)nc2n1-c1cccc(N=S(C)(C)=O)n1	–	–	–	–	100	–
CN1CCN(C2CCN(c3ccc(Nc4ncc5cc(C6CC6)n(-c6cccc(N=S(C)(C)=O)n6)c5n4)cc3)CC2)CC1	–	–	–	2.54	156	–
CCCc1cc2cnc(Nc3ccc(N4CCC(N5CCN(C)CC5)CC4)cc3)nc2n1-c1cccc(N=S(C)(C)=O)n1	–	–	–	–	87	–
CN1CCN(C2CCN(c3ccc(Nc4ncc5cc(C6CC6)n(-c6cccc(C(C)(C)O)n6)c5n4)cc3)CC2)CC1	–	–	–	1.33	105	–
Cc1cc2cnc(Nc3ccc(N4CCN(C)CC4)cc3)nc2n1-c1cccc(C(C)(C)O)n1	125	1	710	–	–	3.56
CCc1cc2cnc(Nc3ccc(N4CCN(C)CC4)cc3)nc2n1-c1cccc(N=S(C)(C)=O)n1	8.1	2.67	48	–	23	2.24
CCCc1c(F)c2cnc(Nc3ccc(N4CCN(C)CC4)cc3)nc2n1-c1cccc(N=S(C)(C)=O)n1	36.8	1.67	314	–	43	4.58
CCCc1cc2cnc(Nc3ccc(N4CCN(C)CC4)cc3)nc2n1-c1cccc(N=S(C)(C)=O)n1	29.4	2.33	188	–	33	3.24
CCCc1cc2cnc(Nc3ccc(N4CCOCC4)cc3)nc2n1-c1cccc(N=S(C)(C)=O)n1	–	–	–	8.3	451	–
C=CCn1c(=O)c2cnc(Nc3ccc(N4CCN(C)CC4)cc3)nc2n1-c1cccc(C(C)(C)O)n1 [ADAVOSERTIB]	–	–	–	–	104	–

The remaining lines, values ahead:

Cmax [1] [ng/mL]	Tmax [2] [h]	AUC(0-inf) [3] [ng·h/mL]	IC50 (Wee1-like protein kinase) [nM]	IC50 (NCI-H1299) [nM]	half-life [4] [h]	Structure (SMILES)
–	–	–	3.37	332	–	CCCc1c(F)c2cnc(Nc3ccc(N4CCOCC4)cc3)nc2n1-c1cccc(N=S(C)(C)=O)n1
–	–	–	–	59	–	Cc1cc2cnc(Nc3ccc(N4CCN(C)CC4)cc3)nc2n1-c1cccc(N=S(C)(C)=O)n1
–	–	–	0.42	91	–	CC(C)c1cc2cnc(Nc3ccc(N4CCN(C)CC4)cc3)nc2n1-c1cccc(C(C)(C)O)n1
–	–	–	–	42	–	CN1CCN(c2ccc(Nc3ncc4cc(C5CC5)n(-c5cccc(N=S(C)(C)=O)n5)c4n3)cc2F)CC1
–	–	–	2.03	101	–	COCc1cc2cnc(Nc3ccc(N4CCN(C)CC4)cc3)nc2n1-c1cccc(N=S(C)(C)=O)n1
–	–	–	9.3	1720	–	CCCc1c(F)c2cnc(Nc3ccc(N4CCN(C)CC4)cc3)nc2n1-c1cccc(C(C)(C)O)n1
76.9	0.92	286	0.92	42	8.26	CN1CCN(c2ccc(Nc3ncc4cc(C5CC5)n(-c5cccc(N=S(C)(C)=O)n5)c4n3)cc2)CC1
